According to patent US9365540B2, “Benzimidazole derivatives as MCH receptor antagonists” (Takeda Pharmaceutical Company Limited, priority 2012, dated 2016):

Experiments:
[1] = biological target: T1, human MCH receptor 1 (MCHR1) (Homo sapiens, UniProt Q99705); test: human MCH receptor 1 (MCHR1) competitive binding assay with [125I]-MCH(4-19); settings: test compound 0.1 μM, human MCHR1-expressing CHO cell membrane fraction, read-out: Binding inhibition rate % (0.1 μM)
T1 construct: expressed in transfected cells; host or cells: CHO cell clone 57 (membrane fraction)
T1 sequence (Q99705 whole entry): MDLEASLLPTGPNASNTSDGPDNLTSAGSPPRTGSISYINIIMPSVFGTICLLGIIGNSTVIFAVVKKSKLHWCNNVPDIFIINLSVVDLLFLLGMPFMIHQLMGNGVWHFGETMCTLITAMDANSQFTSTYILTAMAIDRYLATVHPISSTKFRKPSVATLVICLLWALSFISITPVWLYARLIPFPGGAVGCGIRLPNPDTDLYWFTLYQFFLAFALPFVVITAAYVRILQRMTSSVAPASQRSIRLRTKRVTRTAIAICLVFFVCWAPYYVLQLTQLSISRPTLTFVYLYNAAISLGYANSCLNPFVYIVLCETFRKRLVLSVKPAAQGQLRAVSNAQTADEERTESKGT
Procedure: Determination of human MCH receptor 1 (MCHR1) competitive inhibitory activity of test compound using binding assay
1. Preparation of Membrane Fraction
Using human MCHR1 (=SLC-1 receptor)-expressing CHO cell clone 57 described in WO01/82925, MCHR1-expressing CHO cell membrane fractions were prepared by the following method.
In phosphate buffered saline (pH 7.4) supplemented with 5 mM EDTA (ethylenediaminetetraacetic acid) were respectively suspended human MCHR1-expressing CHO cells (1×10^8 cells) and centrifuged. Homogenate buffer (10 mL, 10 mM NaHCO3, 5 mM EDTA, pH 7.5, 0.5 mM PMSF (phenylmethylsulfonyl fluoride), 20 mg/L leupeptin, 4 mg/L E-64, 1 mg/L pepstatin A) was added to the pellets of the cells and, using Polytron Homogenizer, the mixture was homogenated. The supernatant obtained after centrifugation at 400×g for 10 min was further centrifuged at 100,000×g for 1 hr to give precipitate of the membrane fraction. The precipitate were suspended in 2 mL of assay buffer [20 mM Tris-HCl (pH 7.5), 5 mM EDTA, 0.5 mM PMSF, 20 mg/L leupeptin, 4 mg/L E-64, 1 mg/L pepstatin A]. The membrane fractions were suspended in assay buffer to a protein concentration of 2 mg/mL, and after dispensing, preserved at −80° C. and used upon thawing each time when in use.
The MCHR1 ligand binding inhibitory activity of the test compound was determined as follows.
An MCHR1-expressing CHO cell membrane fraction (173 μL) diluted with an assay buffer was dispensed to a 96 well polypropylene plate (3363, Corning). DMSO solution (2 μL), 33 μM cold MCH(1-19) diluted with DMSO solution (2 μL), or a test compound solution diluted with DMSO solution to various concentrations (2 μL) was added, and lastly, [^125I]-MCH (4-19) diluted with assay buffer (hereinafter, sometimes to be referred to as “hot MCH”, 25 μL) was added to each well. The mixture was reacted with stirring at room temperature for 1 hr, and the plate was set on FilterMate Harvester (PerkinElmer). Using a treating glass filter plate (GF/C, PerkinElmer) with polyethyleneimine, which had been previously set, the plate was suction-filtered and washed three times with washing buffer (50 mM Tris-HCl buffer pH 7.5). The glass filter plate was dried, MicroScinti0 (PerkinElmer) was added at 25 μL/well, and the resulting radioactivity was measured by TopCount liquid scintillation counter (PerkinElmer). The binding inhibition rate of the test compound was calculated by the following formula. Binding inhibition (%)=100−(radioactivity upon addition of test compound and hot MCH−radioactivity upon addition of cold MCH and hot MCH solution)/(radioactivity upon addition of DMSO solution and hot MCH−radioactivity upon addition of cold MCH and hot MCH solution)×100
The binding inhibition rates (%) of test compounds (0.1 μM) as measured using human MCHR1-expressing CHO cell are shown in Table 2.

human MCHR1 = biological target: T2, human MCHR1 (Homo sapiens, UniProt Q99705); test: MCH receptor 1 antagonistic activity, Ca2+ mobilization assay; assay type: cell-based; settings: CHO, test compound 0.1 μM; human MCHR1-expressing CHO cells (clone #4); ligand MCH(4-19) 2 nM; read-out: Inhibitory rate % (0.1 μM)
T2 construct: expressed in transfected cells; host or cells: CHO dhfr- cells, clone #4
T2 sequence (Q99705 whole entry): as above
Procedure: Measurement of MCH Receptor 1 Antagonistic Activity of Test Compound Using Ca^2+ Mobilization Assay Using an expression vector plasmid introduced with human MCHR1 gene for expression in animal cells, human MCHR1 gene was introduced into CHO cells (CHO dhfr^−) by Lipofectamine LTX (Invitrogen). The cells were cultured in selection MEMα medium [445 mL of MEMα medium without nucleic acid and added with 5 mL of Penicillin-Streptomycin (Invitrogen) and 50 mL of dialyzed fetal bovine serum]. Colony 24 clones grown in the selection medium, which were human MCHR1 gene-expressing CHO cell candidates, were selected. […] In the following test, this human MCHR1-expressing CHO cell (clone #4) was used. An integrated dispensing function fluorometer (CellLux, PerkinElmer) was used for Ca^2+ mobilization assay. […] The medium was removed, and the cells were washed with phosphate buffered saline (PBS). […] The plate was set on a plate reader. […] The inhibition rates (%) of test compounds (0.1 μM) as antagonist activity measured using human MCHR1-expressing CHO cells (clone #4) are shown in the following Table 3.

Row | SMILES | inhibition at 0.1 µM [1] [%] | inhibition at 0.1 µM (human MCHR1) [%]
1 | Cn1c([C@@H]2C[C@@H]2C(C)(C)O)nc2ccc(-n3ccc(OCc4ccc(Cl)cc4)cc3=O)cc21 (racemic) [Example 80, 4-((4-Chlorobenzyl)oxy)-1-(2-((1RS,2SR)-2-(2-hydroxypropan-2-yl)cyclopropyl)-1-methyl-1H-benzimidazol-6-yl)pyridin-2(1H)-one] | 91 | 99
2 | Cn1c([C@H]2C[C@H]2C#N)nc2ccc(-n3ccc(OCc4ccc(Cl)cc4)cc3=O)cc21 (racemic) [Example 148, (1RS,2SR)-2-(6-(4-((4-Chlorobenzyl)oxy)-2-oxopyridin-1(2H)-yl)-1-methyl-1H-benzimidazol-2-yl)cyclopropanecarbonitrile] | 69 | 94
3 | Cn1c(C2CC2)nc2ccc(-n3ccc([C@@H]4C[C@H]4c4ccc(Cl)cc4)cc3=O)cc21 (racemic) [Example 253, 4-((1RS,2RS)-2-(4-chlorophenyl)cyclopropyl)-1-(2-cyclopropyl-1-methyl-1H-benzimidazol-6-yl)pyridin-2(1H)-one] | 64 | 69
4 | Cn1c(C(=O)C2CC2)nc2ccc(-n3ccc(OCc4ccc(F)cc4)cc3=O)cc21 [Example 31, 1-(2-(Cyclopropylcarbonyl)-1-methyl-1H-benzimidazol-6-yl)-4-((4-fluorobenzyl)oxy)pyridin-2(1H)-one] | 52 | 61
5 | CC(C)Cc1nc2ccc(-n3ccc(OCc4ccc(Cl)cc4)cc3=O)cc2n1C [Example 37, 4-((4-Chlorobenzyl)oxy)-1-(2-isobutyl-1-methyl-1H-benzimidazol-6-yl)pyridin-2(1H)-one] | 59 | 51
6 | CC1CC1c1nc2ccc(-n3ccc(OCc4ccc(F)cc4)cc3=O)cc2n1C (centres unmarked) [Example 43, 4-((4-Fluorobenzyl)oxy)-1-(1-methyl-2-(2-methylcyclopropyl)-1H-benzimidazol-6-yl)pyridin-2(1H)-one] | 69 | 100
7 | Cc1c(C2CC2)nc2ccc(-n3ncc(OCc4ccc(Cl)cc4)cc3=O)cn12 [Example 55, 5-((4-Chlorobenzyl)oxy)-2-(2-cyclopropyl-3-methylimidazo[1,2-a]pyridin-6-yl)pyridazin-3(2H)-one] | 53 | 78
8 | Cn1c(C2CC2(F)F)nc2ccc(-n3ccc(OCc4ccc(Cl)cc4)cc3=O)cc21 (centres unmarked) [Example 62, 4-((4-Chlorobenzyl)oxy)-1-(2-(2,2-difluorocyclopropyl)-1-methyl-1H-benzimidazol-6-yl)pyridin-2(1H)-one] | 63 | 57
9 | CCCc1nc2ccc(-n3ccc(OCc4ccc(F)cc4)cc3=O)cc2n1C [Example 64, 4-((4-Fluorobenzyl)oxy)-1-(1-methyl-2-propyl-1H-benzimidazol-6-yl)pyridin-2(1H)-one] | 76 | 99
10 | CC(=O)c1nc2ccc(-n3ccc(OCc4ccc(F)cc4)cc3=O)cc2n1C [Example 66, 1-(2-Acetyl-1-methyl-1H-benzimidazol-6-yl)-4-((4-fluorobenzyl)oxy)pyridin-2(1H)-one] | 57 | 84
11 | CCc1nc2ccc(-n3ccc(OCc4ccsc4F)cc3=O)cc2n1C [Example 234, 1-(2-Ethyl-1-methyl-1H-benzimidazol-6-yl)-4-((2-fluoro-3-thienyl)methoxy)pyridin-2(1H)-one] | 50 | 
12 | CCc1nc2ccc(-n3ccc(OCc4ccc(F)s4)cc3=O)cc2n1C [Example 246, 1-(2-Ethyl-1-methyl-1H-benzimidazol-6-yl)-4-((5-fluorothiophen-2-yl)methoxy)pyridin-2(1H)-one] | 52 | 
13 | Cn1c(C2CC2)nc2ccc(-n3ccc(OCc4ccc5sccc5c4)cc3=O)cc21 [Example 255, 4-(1-Benzothiophen-5-ylmethoxy)-1-(2-cyclopropyl-1-methyl-1H-benzimidazol-6-yl)pyridin-2(1H)-one] | 85 | 
